# Measurements taken from patent publication US5502035A, “N-terminus modified analogs of LHRH” (Tap Holdings Inc., priority 1994, dated 1996).
# Non-standard residues stand in square brackets, D forms with d. Residues, ends and D or L forms follow the SMILES beside them. Groups on a side chain read outwards from the residue. *: point of attachment. Shikimoyl = O=C(C1=C[C@@H](O)[C@@H](O)[C@H](O)C1)*; X4 = O=C([C@@H](O)[C@@H](O)[C@H](O)[C@@H](O)CO)*; dPhe(4-Cl) = N[C@H](Cc1ccc(Cl)cc1)C(=O)O; d2Nal = N[C@H](Cc1ccc2ccccc2c1)C(=O)O; NMeY = CN[C@@H](Cc1ccc(O)cc1)C(=O)O; hArg = N=C(N)NCCCC[C@H](N)C(=O)O; d3Pal = N[C@H](Cc1cccnc1)C(=O)O; NMeL = CN[C@@H](CC(C)C)C(=O)O; Nicotinoyl = O=C(c1cccnc1)*; 2Furoyl = O=C(c1ccco1)*; Aze = O=C(O)[C@@H]1CCN1
# Target: T1, LHRH (Rattus norvegicus, UniProt P30969)
# T1 construct: endogenous in cells; host or cells: rat pituitary cells (own knowledge of the cited Haviv 1989 method)
# T1 sequence (P30969 1-327): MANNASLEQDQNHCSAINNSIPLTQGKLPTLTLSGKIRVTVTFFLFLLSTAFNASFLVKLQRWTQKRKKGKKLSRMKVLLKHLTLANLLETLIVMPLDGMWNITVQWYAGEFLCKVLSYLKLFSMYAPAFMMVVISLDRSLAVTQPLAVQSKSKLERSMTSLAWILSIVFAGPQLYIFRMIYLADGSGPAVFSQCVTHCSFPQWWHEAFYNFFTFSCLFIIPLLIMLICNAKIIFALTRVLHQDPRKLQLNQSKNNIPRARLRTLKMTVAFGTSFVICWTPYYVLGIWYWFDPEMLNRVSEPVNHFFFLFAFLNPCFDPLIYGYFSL
# Assay: in vitro test for LHRH antagonist potency (pA2)
# Format: cell-based
# Conditions: negative logarithm of the antagonist concentration required to shift the response curve produced by the agonist leuprolide to two-fold higher concentration
# Outline: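 Antagonism read against the agonist leuprolide on rat LHRH receptor; value is pA2, the −log of antagonist concentration that doubles the agonist concentration needed for the same response.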
row,SMILES,Kb
1,"CC(C)C[C@@H](C(=O)N[C@@H](CCCNC(=N)N)C(=O)N1CCC[C@H]1C(=O)N[C@H](C)C(N)=O)N(C)C(=O)[C@@H](CCCCNC(=O)C1=C[C@@H](O)[C@@H](O)[C@H](O)C1)NC(=O)[C@H](Cc1ccc(O)cc1)N(C)C(=O)[C@H](CO)NC(=O)[C@@H](Cc1cccnc1)NC(=O)[C@@H](Cc1ccc(Cl)cc1)NC(=O)[C@@H](Cc1ccc2ccccc2c1)NC(=O)CNC(=O)C1=C[C@@H](O)[C@@H](O)[C@H](O)C1 [Example 18b, N-Shikimyl-Gly-D2Nal-D4ClPhe-D3Pal-Ser-NMeTyr-DLys(Shik)-NMeLeu-Arg-Pro-DAlaNH2] (Shikimoyl-G[d2Nal][dPhe(4-Cl)][d3Pal]S[NMeY][dK](Shikimoyl)[NMeL]RP[dA]-NH2)",0.00912 nM
2,"CC(C)C[C@H](NC(=O)[C@@H](CCCCNC(=O)C1=C[C@@H](O)[C@@H](O)[C@H](O)C1)NC(=O)[C@H](Cc1ccc(O)cc1)N(C)C(=O)[C@H](CO)NC(=O)[C@@H](Cc1cccnc1)NC(=O)[C@@H](Cc1ccc(Cl)cc1)NC(=O)[C@@H](Cc1ccc2ccccc2c1)NC(=O)CNC(=O)C1=C[C@@H](O)[C@@H](O)[C@H](O)C1)C(=O)N[C@@H](CCCNC(=N)N)C(=O)N1CC[C@H]1C(=O)N[C@H](C)C(N)=O [Example 19, N-Shikimyl-Gly-D2Nal-D4ClPhe-D3Pal-Ser-NMeTyr-DLys(Shik)-Leu-Arg-Aze-DAlaNH2] (Shikimoyl-G[d2Nal][dPhe(4-Cl)][d3Pal]S[NMeY][dK](Shikimoyl)LR[Aze][dA]-NH2)",0.0407 nM
3,"CC(C)C[C@H](NC(=O)[C@@H](CCCCNC(=O)CNC(=O)CNC(=O)c1cccnc1)NC(=O)[C@H](Cc1ccc(O)cc1)N(C)C(=O)[C@H](CO)NC(=O)[C@@H](Cc1cccnc1)NC(=O)[C@@H](Cc1ccc(Cl)cc1)NC(=O)[C@@H](Cc1ccc2ccccc2c1)NC(=O)CNC(=O)C1=C[C@@H](O)[C@@H](O)[C@H](O)C1)C(=O)N[C@@H](CCCNC(=N)N)C(=O)N1CCC[C@H]1C(=O)N[C@H](C)C(N)=O [Example 20, N-Shikimyl-Gly-D2Nal-D4ClPhe-D3Pal-Ser-NMeTyr-DLys(GlyGlyNic)-Leu-Arg-Pro-DAlaNH2] (Shikimoyl-G[d2Nal][dPhe(4-Cl)][d3Pal]S[NMeY][dK]([Gly-Gly-Nicotinoyl])LRP[dA]-NH2)",0.0263 nM
4,"CC(C)C[C@H](NC(=O)[C@@H](CCCCNC(=O)CNC(=O)[C@@H](O)[C@@H](O)[C@H](O)[C@@H](O)CO)NC(=O)[C@H](Cc1ccc(O)cc1)N(C)C(=O)[C@H](CO)NC(=O)[C@@H](Cc1cccnc1)NC(=O)[C@@H](Cc1ccc(Cl)cc1)NC(=O)[C@@H](Cc1ccc2ccccc2c1)NC(=O)CNC(=O)[C@@H](O)[C@@H](O)[C@H](O)[C@@H](O)CO)C(=O)N[C@@H](CCCNC(=N)N)C(=O)N1CCC[C@H]1C(=O)N[C@H](C)C(N)=O [Example 21, N-(L-Gulonyl)-Gly-D2Nal-D4ClPhe-D3Pal-Ser-NMeTyr-DLys(Gly-L-Gulonyl)-Leu-Arg-Pro-DAlaNH2] (X4-G[d2Nal][dPhe(4-Cl)][d3Pal]S[NMeY][dK]([Gly-X4])LRP[dA]-NH2)",0.0316 nM
5,"CC(C)C[C@H](NC(=O)[C@@H](CCCCNC(=O)CNC(=O)C1=C[C@@H](O)[C@@H](O)[C@H](O)C1)NC(=O)[C@H](Cc1ccc(O)cc1)N(C)C(=O)[C@H](CO)NC(=O)[C@@H](Cc1cccnc1)NC(=O)[C@@H](Cc1ccc(Cl)cc1)NC(=O)[C@@H](Cc1ccc2ccccc2c1)NC(=O)CNC(=O)c1cccnc1)C(=O)N[C@@H](CCCNC(=N)N)C(=O)N1CCC[C@H]1C(=O)N[C@H](C)C(N)=O [Example 22, N-Nicotinyl-Gly-D2Nal-D4ClPhe-D3Pal-Ser-NMeTyr-DLys(Gly-Shik)-Leu-Arg-Pro-DAlaNH2] (Nicotinoyl-G[d2Nal][dPhe(4-Cl)][d3Pal]S[NMeY][dK]([Gly-Shikimoyl])LRP[dA]-NH2)",0.00339 nM
6,"CC[C@H](C)[C@H](NC(=O)[C@@H](CCCCNC(=O)C1=C[C@@H](O)[C@@H](O)[C@H](O)C1)NC(=O)[C@H](Cc1ccc(O)cc1)N(C)C(=O)[C@H](CO)NC(=O)[C@@H](Cc1cccnc1)NC(=O)[C@@H](Cc1ccc(Cl)cc1)NC(=O)[C@@H](Cc1ccc2ccccc2c1)NC(=O)CNC(=O)c1cccnc1)C(=O)N[C@@H](CCCNC(=N)N)C(=O)N1CCC[C@H]1C(=O)N[C@H](C)C(N)=O [Example 23a, N-Nicotinyl-Gly-D2Nal-D4ClPhe-D3Pal-Ser-NMeTyr-DLys(Shik)-Ile-Arg-Pro-DAlaNH2] (Nicotinoyl-G[d2Nal][dPhe(4-Cl)][d3Pal]S[NMeY][dK](Shikimoyl)IRP[dA]-NH2)",0.0195 nM
7,"CC(C)C[C@@H](C(=O)N[C@@H](CCCNC(=N)N)C(=O)N1CCC[C@H]1C(=O)N[C@H](C)C(N)=O)N(C)C(=O)[C@@H](CCCCNC(=O)C1=C[C@@H](O)[C@@H](O)[C@H](O)C1)NC(=O)[C@H](Cc1ccc(O)cc1)N(C)C(=O)[C@H](CO)NC(=O)[C@@H](Cc1cccnc1)NC(=O)[C@@H](Cc1ccc(Cl)cc1)NC(=O)[C@@H](Cc1ccc2ccccc2c1)NC(=O)CNC(=O)c1cccnc1 [Example 23b, N-Nicotinyl-Gly-D2Nal-D4ClPhe-D3Pal-Ser-NMeTyr-DLys(Shikimyl)-NMeLeu-Arg-Pro-DAlaNH2] (Nicotinoyl-G[d2Nal][dPhe(4-Cl)][d3Pal]S[NMeY][dK](Shikimoyl)[NMeL]RP[dA]-NH2)",0.0186 nM
8,"CC(C)C[C@H](NC(=O)[C@@H](CCCCNC(=O)C1=C[C@@H](O)[C@@H](O)[C@H](O)C1)NC(=O)[C@H](Cc1ccc(O)cc1)N(C)C(=O)[C@H](CO)NC(=O)[C@@H](Cc1cccnc1)NC(=O)[C@@H](Cc1ccc(Cl)cc1)NC(=O)[C@@H](Cc1ccc2ccccc2c1)NC(=O)CNC(=O)c1cccnc1)C(=O)N[C@@H](CCCNC(=N)N)C(=O)N1CC[C@H]1C(=O)N[C@H](C)C(N)=O [Example 24, N-Nicotinyl-Gly-D2Nal-D4ClPhe-D3Pal-Ser-NMeTyr-DLys(Shikimyl)-Leu-Arg-Aze-DAlaNH2] (Nicotinoyl-G[d2Nal][dPhe(4-Cl)][d3Pal]S[NMeY][dK](Shikimoyl)LR[Aze][dA]-NH2)",0.0282 nM
9,"CC(C)C[C@H](NC(=O)[C@@H](CCCCNC(=O)C1=C[C@@H](O)[C@@H](O)[C@H](O)C1)NC(=O)[C@H](Cc1ccc(O)cc1)N(C)C(=O)[C@H](CO)NC(=O)[C@@H](Cc1cccnc1)NC(=O)[C@@H](Cc1ccc(Cl)cc1)NC(=O)[C@@H](Cc1ccc2ccccc2c1)NC(=O)CNC(=O)c1cccnc1)C(=O)N[C@@H](CCCCNC(=N)N)C(=O)N1CCC[C@H]1C(=O)N[C@H](C)C(N)=O [Example 25a, N-Nicotinyl-Gly-D2Nal-D4ClPhe-D3Pal-Ser-NMeTyr-DLys(Shik)-Leu-Harg-Pro-DAlaNH2] (Nicotinoyl-G[d2Nal][dPhe(4-Cl)][d3Pal]S[NMeY][dK](Shikimoyl)L[hArg]P[dA]-NH2)",0.0141 nM
10,"CC(C)C[C@H](NC(=O)[C@@H](CCCCNC(=O)C1=C[C@@H](O)[C@@H](O)[C@H](O)C1)NC(=O)[C@H](Cc1ccc(O)cc1)N(C)C(=O)[C@H](CO)NC(=O)[C@@H](Cc1cccnc1)NC(=O)[C@@H](Cc1ccc(Cl)cc1)NC(=O)[C@@H](Cc1ccc2ccccc2c1)NC(=O)[C@@H](CO)NC(=O)c1cccnc1)C(=O)N[C@@H](CCCCNC(=N)N)C(=O)N1CCC[C@H]1C(=O)N[C@H](C)C(N)=O [Example 25b, N-Nicotinyl-DSer-D2Nal-D4ClPhe-D3Pal-Ser-NMeTyr-DLys(Shikimyl)-Leu-Harg-Pro-DAlaNH2] (Nicotinoyl-[dS][d2Nal][dPhe(4-Cl)][d3Pal]S[NMeY][dK](Shikimoyl)L[hArg]P[dA]-NH2)",0.00794 nM
11,"CC(C)C[C@H](NC(=O)[C@@H](CCCCNC(=O)C1=C[C@@H](O)[C@@H](O)[C@H](O)C1)NC(=O)[C@H](Cc1ccc(O)cc1)N(C)C(=O)[C@H](CO)NC(=O)[C@@H](Cc1cccnc1)NC(=O)[C@@H](Cc1ccc(Cl)cc1)NC(=O)[C@@H](Cc1ccc2ccccc2c1)NC(=O)CNC(=O)c1ccco1)C(=O)N[C@@H](CCCCNC(=N)N)C(=O)N1CCC[C@H]1C(=O)N[C@H](C)C(N)=O [Example 25c, N-(2-Furoyl)-Gly-D2Nal-D4ClPhe-D3Pal-Ser-NMeTyr-DLys(Shik)-Leu-Harg-Pro-DAlaNH2] (2Furoyl-G[d2Nal][dPhe(4-Cl)][d3Pal]S[NMeY][dK](Shikimoyl)L[hArg]P[dA]-NH2)",0.0017 nM
12,"CC(C)C[C@H](NC(=O)[C@@H](CCCCNC(=O)C1=C[C@@H](O)[C@@H](O)[C@H](O)C1)NC(=O)[C@H](Cc1ccc(O)cc1)N(C)C(=O)[C@H](CO)NC(=O)[C@@H](Cc1cccnc1)NC(=O)[C@@H](Cc1ccc(Cl)cc1)NC(=O)[C@@H](Cc1ccc2ccccc2c1)NC(=O)CNC(=O)C1=C[C@@H](O)[C@@H](O)[C@H](O)C1)C(=O)N[C@@H](CCCCNC(=N)N)C(=O)N1CCC[C@H]1C(=O)N[C@H](C)C(N)=O [Example 25d, N-Shikimyl-Gly-D2Nal-D4ClPhe-D3Pal-Ser-NMeTyr-DLys(Shik)-Leu-Harg-Pro-DAlaNH2] (Shikimoyl-G[d2Nal][dPhe(4-Cl)][d3Pal]S[NMeY][dK](Shikimoyl)L[hArg]P[dA]-NH2)",0.0339 nM
13,"CC(C)C[C@H](NC(=O)[C@@H](CCCCNC(=O)CNC(=O)C1=C[C@@H](O)[C@@H](O)[C@H](O)C1)NC(=O)[C@H](Cc1ccc(O)cc1)N(C)C(=O)[C@H](CO)NC(=O)[C@@H](Cc1cccnc1)NC(=O)[C@@H](Cc1ccc(Cl)cc1)NC(=O)[C@@H](Cc1ccc2ccccc2c1)NC(=O)CNC(=O)c1cccnc1)C(=O)N[C@@H](CCCCNC(=N)N)C(=O)N1CCC[C@H]1C(=O)N[C@H](C)C(N)=O [Example 25e, N-Nicotinyl-Gly-D2Nal-D4ClPhe-D3Pal-Ser-NMeTyr-DLys(Gly-Shik)-Leu-Harg-Pro-DAlaNH2] (Nicotinoyl-G[d2Nal][dPhe(4-Cl)][d3Pal]S[NMeY][dK]([Gly-Shikimoyl])L[hArg]P[dA]-NH2)",0.00339 nM
